Among the data in paper PMC11009625, “Antibiotic class with potent in vivo activity targeting lipopolysaccharide synthesis in Gram-negative bacteria” (Proceedings of the National Academy of Sciences of the …, 2024) are microsomal CLint and MIC values, retold here.

Like-named read-outs stand apart in the source and are kept apart here.

Data set [1] can be described thus: Metabolic stability in human liver microsomes. The data set is classed as in vitro ADME. The settings on record: pH 7.4. The method, then:
Thermodynamic solubility was assessed by dissolving 2 to 3 mg of test compound to equilibrium in 100 mM KPO4-buffer, pH 7.4. The metabolic stability assay was performed in the presence of human and mouse liver microsomes by measurement of test compounds disappearance over time (60 min). The plasma protein binding assay, including stability estimation, was performed using the RED devices (Thermo Fisher Scientific) in the presence of human and mouse plasma. All samples from the in vitro ADME studies were quantified by liquid chromatography-triple quadrupole mass spectrometry (LC–MS/MS). The assays were performed as previously described ([36]) and the details are available in SI Appendix. Cytotoxicity was assessed by incubation of test compounds in the presence of HepG2 cells for 72 h as previously described ([37]). […]
The plate is then sealed, centrifuged and the supernatant is analysed by liquid
chromatography coupled to triple quadrupole mass spectrometry (LC-MS/MS).
Metabolic stability in the presence of human and animal liver microsomes. Metabolic stability
was determined in 0.5 mg/ml human or animal liver microsomes at a compound concentration
of 1 μM in 100 mM KPO4 buffer pH 7.4 in a total incubation volume of 500 μl. The reaction was
initiated by addition of 1 mM NADPH. At various incubation times, i.e. at 0, 5, 10, 20, 40 and 60
min, a sample was withdrawn from the incubation and the reaction was terminated by addition
of cold acetonitrile with warfarin as an internal standard. […]
Liquid chromatography coupled to triple quadrupole mass spectrometry (LC-MS/MS). The test
compounds were optimized on a Waters Acquity UPLC XEVO TQ-S micro system (Waters Corp.)
operating in multiple reaction monitoring (MRM) mode with positive or negative electrospray
ionization. Compounds were optimized by using the QuanOptimize software (Waters Corp.).
For chromatographic separation, a C18 BEH 1.7 µm column was used, with a general gradient of
1% to 90% of mobile phase B over a total running time of 2 min. Mobile phase A consisted of
5% acetonitrile and 0.1% formic acid in purified water, and mobile phase B of 0.1% formic acid
in 100% acetonitrile. The flow rate was set to 0.5 ml/min and 5 µL of the sample was injected.
On the technique in general: Liver microsomes are vesicles of endoplasmic reticulum, rich in cytochrome P450 enzymes.

The test system of data set [2] is Staphylococcus aureus ATCC 29213. Description: MIC, S. aureus. In kind it is cell-based. The method, then: Minimum inhibitory concentration (MIC) values were determined according to the Clinical Laboratory Standards Institute guidelines. Frequency of resistance was determined by plating ~5 × 10^8 bacterial cells on agar-solidified media plates containing test compound at concentrations corresponding to four times the measured solid-media MIC of the strains. Colonies were counted after 24 h, restreaked onto media containing the same concentration of compound, and the MIC remeasured against the assayed compound. Genomic DNA from isolated clones was sequenced by paired-end sequencing on an Illumina MiSeq device. Complete experimental details available in SI Appendix.
Cytotoxicity. The cytotoxicity assay was performed in HepG2 cells as previously described(10) […]
Minimum inhibitory concentration (MIC) determination. Broth microdilution and agar dilution MIC assays were conducted according to CLSI guidelines (M07-2012). Appropriate inoculation suspension density was assessed using a Sensititre Nephelometer with a Sensititre 0.5 McFarland Standard. Serum MICs were conducted in 50% heat-inactivated pooled human serum (Sigma-Aldrich). Serum was heated to 56 °C for one hour and then filtered using a 0.2 µm […]
Hemolysis. Hemolysis was conducted as previously described (11).
Frequency of Resistance. Frequency of resistance was assessed by spread plating between […] cfu of a freshly-grown culture of the strain of interest on plates containing a concentration of compound corresponding to 4 times the MIC of the strain (as determined by agar-dilution MIC). […] The frequency of resistance was determined by dividing the number of colonies obtained on the selective plates after 24 hours of growth by the calculated total population plated. […]
Whole-genome sequencing and data analysis. […] Whole-genome sequencing data was analyzed using CLC Genomics Workbench Version 11. To determine the genotype of MDR strains from the ENABLE strain collection, de novo assembled contigs were analyzed using ResFinder (12–14) […]

Setting [3] is: ATCC29213, read-out: MIC S. aureus ATCC 29213.

In general, microsomal CLint refers to the capacity of the preparation to metabolise the compound, expressed as a volume cleared per time. A higher microsomal CLint goes with rapid turnover. `CN(c1ccc(CNCCN)cc1C(=O)Nc1ccc(S(=O)(=O)N2CCN(c3cc(Cl)cc(Cl)c3)CC2)cc1)S(C)(=O)=O` [EBL-3025]: the microsomal CLint at 1 µM in data set [1] was found to be 42.2 µL/min/mg.
In the case of `Cc1cc(C#N)nc(N2CCN(S(=O)(=O)c3ccc(NC(=O)c4ccccc4N(C)S(C)(=O)=O)cc3)CC2)n1` [EBL-3339], the intrinsic metabolic clearance (microsomal CLint) at 1 µM in data set [1] turned out to be 551 µL/min/mg.
For orientation: MIC means the lowest concentration found to suppress growth. In data set [1], `Cc1cc(C#N)nc(N2CCN(S(=O)(=O)c3ccc(NC(=O)c4cc(CNCCCN)ccc4N(C)S(C)(=O)=O)cc3)CC2)n1.Cl.Cl` [EBL-3599] gave an intrinsic metabolic clearance (microsomal CLint) at 1 µM of under 5 µL/min/mg. In addition, the MIC in data set [2] (ATCC29213, WT, read-out: MIC S. aureus ATCC 29213) was over 64 µg/mL.
Turning to `Cc1cc(C#N)nc(N2CCN(S(=O)(=O)c3ccc(NC(=O)c4cc(CN5CC(CN)C5)ccc4N(C)S(C)(=O)=O)cc3)CC2)n1` [EBL-3647], in data set [1], the microsomal CLint at 1 µM was 3.1 µL/min/mg. Also, the minimum inhibitory concentration (MIC) in data set [2] (setting [3]) is over 64 µg/mL.
As to `CN(c1ccccc1C(=O)Nc1ccc(S(=O)(=O)N2CCN(c3cccc(C(F)(F)F)c3)CC2)cc1)S(C)(=O)=O` [JEDI-1444], the microsomal CLint at 1 µM in data set [1] was determined as 209 µL/min/mg. Further, the MIC in data set [2] (setting [3]) is over 64 µg/mL.
